Experimental data: patent US8604220B2, “Isolation of Simalikalactone E and use thereof as a medicament, in the treatment of malaria” (priority 2009, dated 2013)

Legend:
[1] = system: liver stages of Plasmodium yoelii; test: In vitro activity against liver stages of P. yoelii in mouse primary hepatocytes; assay type: cell-based; conditions: for IC50: Plasmodium yoelii, Hepatocyte, liver stages, 48 hours, SkE mean of three experiments, read-out: IC50 on murine hepatocytes infected with P. yoelii
Protocol: (§1) The in vitro activity of SkE against the pre-erythrocytic stages was tested on different Plasmodium species. […] The in vitro assays were carried out using cultures of human primary hepatocytes (HH) or mouse primary hepatocytes (MH), respectively. The primary cells were isolated by collagenase perfusion of pieces of liver (obtained from humans or from female Swiss mice, respectively), followed by purification of the separated cells on a percoll gradient. The hepatocytes were seeded into 96-well microplates (35 000 MH/well and 82 500 HH/well) and maintained in culture at 37° C. and 5% CO2 in a William medium supplemented with 10% FCS (Hyclone), 100 U/ml of penicillin, […] of streptomycin, 2 mM of glutamine, 5 μg/ml of insulin and 5×10^−7 M of hydrocortisone hemisuccinate. A stock solution of SkE was prepared in DMSO at 200 mg/ml, and then diluted in complete medium described above so as to obtain the desired concentrations. The hepatocytes were infected with P. yoelii sporozoites (30 000) or P. falciparum sporozoites (40 000). The SkE compound was added simultaneously with sporozoites at various concentrations. The culture medium was then replaced 3 h after the inoculation of the sporozoites, and then every day. The cultures were fixed 48 hours after the infection for P. yoelii, and 5 days after infection for P. falciparum. The inhibitory effect of the compound was quantified, after fluorescent immunolabeling of the liver schizonts with a mouse serum directed against PfHSP70, by fluorescence microscopy analysis.

[2] = system: liver stages of Plasmodium falciparum; test: In vitro activity against liver stages of P. falciparum in human primary hepatocytes; assay type: cell-based; conditions: for therapeutic index TI=TC50/IC50: P. falciparum liver stages, human hepatocytes; for IC50: Plasmodium falciparum, Hepatocyte, 120 h, human primary hepatocytes, 5 days, SkE mean of two experiments
Protocol: as §1

P. vinckei petteri = test: Antimalarial activity in vivo, mice infected with P. vinckei petteri (Peters test); set-up: species or system Plasmodium vinckei petteri; conditions: for ED50, dose inhibiting 50% of the growth of P. vinckei petteri: mice, 4 days; for survival of the mice compared with chloroquine: IP route
Protocol: The antimalarial activity of SkE was evaluated on female Swiss mice (22 g±2) infected with P. vinckei petteri. Before infection of the mice having been used for the test, the parasites were thawed, injected and maintained by passaging in two batches of mice. The parasitized blood was taken from the retro-orbital sinus and each mouse of the study was infected with 2×10^7 parasites intraperitoneally. The infected animals were divided up into batches of 5 per cage and were treated intraperitoneally each day for 4 days. The SkE was tested at 4 concentrations prepared in 90% DMSO (intraperitoneal route) or carboxymethylcellulose (oral route) in such a way that each mouse receives 200 μl of preparation. The experiment included control parasitized mice receiving 200 μl of 90% DMSO or CMC alone orally, and 3 batches of 5 mice, each of these batches being treated with solutions of chloroquine at 1, 5 and 10 mg/kg diluted in PBS (IP).
At the end of the treatment (5 d after the infection), a blood smear was performed from a drop of blood originating from the tail of each mouse, fixed with methanol and stained with Giemsa. The slides were examined under a microscope and the parasitemia counted for 10 000 red blood cells.
The survival of the mice was monitored for 21 days.

[3] = system: P. falciparum (F32 Tanzania, FcB1 Colombia, W2 Indochina strains); test: Antiplasmodial activity in vitro, tritiated hypoxanthine incorporation; assay type: cell-based; conditions: Plasmodium falciparum, 48 h, read-out: IC50, inhibits 50% of the growth of P. falciparum in culture
Protocol: The following three strains of Plasmodium falciparum were used: • chloroquine-sensitive F32 Tanzania • chloroquine-resistant FcB1 Colombia • W2 Indochina.
The antimalarial activity of the various products is evaluated by means of the radioactive method using tritiated hypoxanthine, described by Desjardins et al., with the modifications introduced by Benoit et al. (Desjardins R. E. et al., Antimicrob. Agents Chemother, 1979, 16: 710-718; F. Benoit et al. Trans. Roy. Soc. Trop. Med. Hyg. 89: 217-218).
The test is carried out in 96-well culture plates (supplier: TPP, Switzerland) on cultures mainly at the ring stage. The parasites are brought into contact with the products for 48 h at 37° C. and 5% CO2. The growth of the parasite is then estimated by following tritiated hypoxanthine incorporation into the nucleic acids of the parasite. The IC50 values are determined graphically on curves of percentage inhibition of growth as a function of concentration. Thus, the antimalarial activity of SkE was evaluated according to the following protocol. […]
The filter is then placed in a cassette which is placed in the β-counter in order to measure the radioactivity. […]

[4] = Cytotoxicity on Vero cells, tritiated hypoxanthine incorporation; assay type: cell-based, monkey; conditions: monkey, Vero cells (monkey kidney epithelial cells)
Protocol: (§2) This evaluation is carried out on two cell types, the MCF-7 line, which is a mammary tumor cell line, and Vero cells (monkey kidney cells).
(§3) VERO cells are monkey kidney epithelial cells. They are cultured in the same way as the MCF-7, but in EMEM medium supplemented with 10% FCS, nonessential amino acids, sodium pyruvate, HEPES and glutamine.
(§4) The evaluation of cytotoxicity follows the same method as the antimalarial activity test, but with P. falciparum being replaced with the MCF-7 or VERO cells.
(§5) However, there are a few minor modifications, owing to the different mode of culture. This is because the cells used for the cytotoxicity tests are adherent cells and their growth is slower. Consequently, they are seeded in 96-well plates 24 hours before they are brought into contact with the test products. After 24 h, the cells adhere to the bottom of the well, the medium is changed, and then the test molecules are added, the dilution thereof being carried out in complete medium. The medium used depends on the cells used (DMEM or EMEM).
(§6) In the same way as for the antimalarial activity test, tritiated hypoxanthine is added 24 hours after bringing into contact with the products, and the plate is placed in the freezer 48 hours later. Finally, the radioactivity is measured as for the antimalarial activity test. The evaluation of the IC50 values is carried out graphically as for that of P. falciparum.

Vero cells = test: as above; assay type: cell-based, monkey; conditions: for toxicity compared with Simalikalactone D: mammalian cell lines (Vero cells)
Protocol: as §2, §3, §4, §5, §6

[5] = Cytotoxicity on THP1 cells; assay type: cell-based; conditions: human
[6] = In vitro cytotoxicity on primary rodent hepatocytes, MTT assay; assay type: cell-based, mouse; conditions: Swiss, mouse, primary hepatocytes; one of the 3 experiments carried out; read-out: cytotoxicity IC50 on murine hepatocytes
Protocol: (§7) In parallel, the cytotoxicity of the compound was evaluated on human and rodent hepatocytes treated under the same conditions as in the assays for activity of the test compound, by means of the MTT (tetrazolium) colorimetric assay (Mosmann et al., 1983). After incubation of the primary rodent or human hepatocytes for 2 days or 5 days, respectively, with the various concentrations of the test compound, 100 μl of MTT solution ([…]) were added to each well. The plates were then incubated for 4 hours at 37° C. The formazan crystals were then dissolved in 100 μl of DMSO-ethanol mixture (V/V). The optical density was measured by spectrophotometry at 540 nm. The results are expressed as percentage cell viability relative to the untreated control.

[7] = system: primary rodent hepatocytes; test: as above; assay type: cell-based, mouse; conditions: the other two experiments; highest concentration tested 5.54 μM
Protocol: as §7

[8] = Vero cells versus P. falciparum

| SMILES | IC50 [1] [nM] | therapeutic index TI=TC50/IC50 [2] | IC50 [2] [nM] | ED50, dose inhibiting 50% of the growth of P. vinckei petteri (P. vinckei petteri; intraperitoneally) [mg/kg/day] | IC50 [3] [nM] | IC50 at 72 h [4] [nM] | IC50 (Vero cells; Primates, Vero cells, read-out: inhibits 50% of the growth of Vero mammalian cells) [nM] | selectivity index (Vero cells; [8]) | selectivity index with respect to P. falciparum compared with SkD (Vero cells; [8]) | toxicity compared with Simalikalactone D (Vero cells) | toxicity compared with Simalikalactone D (Vero cells; listed as Simalikalactone E) | IC50 [5] [nM] | survival of the mice compared with chloroquine (P. vinckei petteri; all doses, p<0.05) | survival of the mice compared with chloroquine (P. vinckei petteri; dose of 1 mg/kg/d) | mean survival time of the mice (P. vinckei petteri; ip at 1 mg/kg/day, monitored for 3 weeks, one experiment) | ED50, dose inhibiting 50% of the growth of P. vinckei petteri (P. vinckei petteri; orally) [mg/kg/day] | activity relative to primaquine on P. yoelii liver stages ([1]; fold more active than primaquine, same conditions) | IC50 at 2 days [6] [nM] | cytotoxicity on murine hepatocytes at highest concentration tested [7] |
| --- | --- | --- | --- | --- | --- | --- | --- | --- | --- | --- | --- | --- | --- | --- | --- | --- | --- | --- | --- |
| COc1cc(NC(C)CCCN)c2ncccc2c1 (centres unmarked) [primaquine, reference compound] | 640 | 81 | 800 | – | – | – | – | – | – | – | – | – | – | – | – | – | – | – | – |
| CCN(CC)CCCC(C)Nc1ccnc2cc(Cl)ccc12 (centres unmarked) [chloroquine, reference compound] | – | – | – | 3 | – | – | – | – | – | – | – | – | – | – | – | – | – | – | – |
| CCC(C)C(=O)O[C@@H]1[C@H]2C(C)=CC(=O)[C@@H](O)[C@]2(C)[C@H]2[C@@H](O)[C@H](O)[C@@]3(C)OC[C@@]24[C@@H]1OC(=O)[C@H](OC(=O)C(C)CC)[C@@H]34 (some centres unmarked) [SkE, Simalikalactone E] | 186 ± 16 | 75 | 1200 ± 190 | 0.5 | 24 to 68 | 6000 | 6570 | greater than 100 | twice that of SkD | less than that of SkD | less toxicity than Simalikalactone D | 33 | always better than that of the mice treated with CQ at the doses of 1 | equivalent to what is obtained for CQ at 10 mg/kg/d | greater than 18.6 days | 1 | at least 3 times | 1120 | no toxicity was observed |
